According to the supplement of paper PMC11451515:

Experiments:
Assay in all cases: AUC of viability dose-response curve (% viability x log10 dose units); higher = less sensitive
Settings in all cases: 48 h
SEM cells = test system: SEM cells
Outline: (§1)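 Area under the curve was integrated by trapezoidal rule from a log-logistic fit of normalised viability, with curves exceeding full viability scaled and quality-control failures removed. The fit had four parameters over log10 doses. Viability came from CellTiter-Glo One luminescence, normalised per plate to DMSO and cell-free wells, after leukemia cells adapted to each medium (500 or 1000 cells/well, 1536-well plates) were exposed to library compounds in DMSO for 48 h at 37°C. The 11 threefold doses ran from 47 μM to 0.79 nM.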

P12-Ichikawa = test system: P12-Ichikawa
Outline: as §1

NOMO1 = test system: NOMO1
Outline: as §1

[1] = RPMI 5 mM glucose + 10% dialyzed FBS

Compound	AUC of viability dose-response curve (SEM cells; HPLM + 10% dialyzed FBS)	AUC of viability dose-response curve (SEM cells; RPMI 5 mM glucose + 10% FBS)	AUC of viability dose-response curve (SEM cells; [1])	AUC of viability dose-response curve (P12-Ichikawa; HPLM + 10% dialyzed FBS)	AUC of viability dose-response curve (P12-Ichikawa; RPMI 5 mM glucose + 10% FBS)	AUC of viability dose-response curve (P12-Ichikawa; [1])	AUC of viability dose-response curve (NOMO1; HPLM + 10% dialyzed FBS)	AUC of viability dose-response curve (NOMO1; RPMI 5 mM glucose + 10% FBS)	AUC of viability dose-response curve (NOMO1; [1])
O=C(c1ccc(Nc2nccc(-c3cc4ccccc4s3)n2)cc1)N1CCC(N2CCCC2)CC1	382	389	394	430	441	425	411	446	432
CC/1=C(/N2[C@H](SC1)[C@H](NC(=O)[C@H](N)\C3=C\C\C=C/C3)C2=O)C(O)=O	429	470	448	471	441	440	446	454	461
C[S+]([O-])(=O)C1=CC=C(C=C1)C/2=C(/C(=O)OC2)C3=CC=CC=C3	466	431	453	468	449	472	465	463	445
COc1ccc(C2CNC(=O)C2)cc1OC1CCCC1 (centres undefined)	455	453	448	470	472	450	465	460	465
Cc1cccc(Nc2nc(-c3ccncc3)cs2)c1	466	464	454	470	469	465	442	466	473
COCCCN1CCC(NC(=O)c2cc(Cl)c(N)c3c2OCC3)CC1	453	451	454	465	467	473	460	456	468
C[C@@]12C[C@@]3(O)O[C@@H](O1)[C@]1(COC(=O)c4ccccc4)[C@H]3C[C@@]12O[C@@H]1O[C@H](CO)[C@@H](O)[C@H](O)[C@H]1O	456	454	463	469	467	469	436	463	463
COc1cc2ncnc(Nc3cc(Br)c(O)c(Br)c3)c2cc1OC	458	462	461	473	469	472	477	470	467
CC1(C)O[C@@H]2C[C@H]3[C@@H]4CCC5=CC(=O)C=C[C@]5(C)[C@H]4[C@@H](O)C[C@]3(C)[C@]2(C(=O)CO)O1	313	353	318	391	357	331	474	445	454
C[C@@H]1[C@H](O)[C@@H](C)/C=C/C=C/C=C/C=C/C=C/C=C/C=C/[C@H](O[C@@H]2O[C@H](C)[C@@H](O)[C@H](N)[C@@H]2O)C[C@@H]2O[C@](O)(C[C@@H](O)C[C@@H](O)[C@H](O)CC[C@@H](O)C[C@@H](O)CC(=O)O[C@H]1C)C[C@H](O)[C@H]2C(=O)O	450	443	465	468	458	465	422	452	461
Cc1cc2c(F)c(Oc3ncnn4cc(OC[C@@H](C)O)c(C)c34)ccc2[nH]1	394	372	380	442	454	448	459	453	446
COc1cc(OC)c(/C=C/[S+](=O)([O-])Cc2ccc(OC)c(NCC(=O)[O][Na])c2)c(OC)c1	287	269	249	271	269	257	315	309	278
O=C(O)c1ccc2c(c1)nc(Nc1cccc(Cl)c1)c1ccncc12	421	412	406	453	437	429	425	437	441
COc1ccc(C(C)=O)c(O)c1	439	450	462	422	421	423	350	366	381
OC1CCC(Nc2ncc3nc(Nc4c(F)cc(F)cc4F)n([C@@H]4CCOC4)c3n2)CC1 (some centres undefined)	474	452	458	468	465	468	465	446	448
Cc1cc(C(C)(C)C)c(O)c(C)c1CC1=NCCN1	360	392	400	454	444	429	432	419	422
